Measurements published in patent US20100137313A1 (ASTRAZENECA AB, priority 2008, published 2010).

The molecules below were run against S. pneumoniae Topoisomerase IV ATPase (ParE) (Streptococcus pneumoniae serotype 4, UniProt Q59961) (assay: S. pneumoniae Topoisomerase IV ATPase inhibition). Details: values marked * are an average of two or more data points, read-out: % Inh (13 μM) of S. pneumoniae Topoisomerase IV ATPase.
Sequence of S. pneumoniae Topoisomerase IV ATPase (ParE) (Q59961 whole entry): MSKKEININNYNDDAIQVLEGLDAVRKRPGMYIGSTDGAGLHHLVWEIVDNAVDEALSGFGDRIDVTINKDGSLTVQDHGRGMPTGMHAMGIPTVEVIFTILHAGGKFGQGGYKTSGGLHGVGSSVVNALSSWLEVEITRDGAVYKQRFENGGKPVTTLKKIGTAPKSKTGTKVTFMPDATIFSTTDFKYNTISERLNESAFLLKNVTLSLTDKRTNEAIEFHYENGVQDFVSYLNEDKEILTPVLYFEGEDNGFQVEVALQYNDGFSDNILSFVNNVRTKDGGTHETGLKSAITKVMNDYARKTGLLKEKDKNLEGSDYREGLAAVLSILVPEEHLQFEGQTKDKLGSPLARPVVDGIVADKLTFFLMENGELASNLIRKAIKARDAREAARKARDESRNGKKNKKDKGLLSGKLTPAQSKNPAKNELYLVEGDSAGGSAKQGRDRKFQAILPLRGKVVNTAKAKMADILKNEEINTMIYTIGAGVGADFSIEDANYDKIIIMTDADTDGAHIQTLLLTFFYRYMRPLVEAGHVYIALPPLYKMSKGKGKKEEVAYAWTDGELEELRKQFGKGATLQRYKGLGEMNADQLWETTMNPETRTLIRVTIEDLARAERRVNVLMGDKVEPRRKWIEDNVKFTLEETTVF
Assay type: biochemical
How it was run: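 ParE ATPase (1.25 nM) run with 160 μM ATP and 5 μg/ml sheared salmon sperm DNA in Tris pH 8.0, Mg2+, glycerol, DTT, Brij-35. Phosphate released read by malachite green/molybdate absorbance at 650 nm. IC50 from 10 compound concentrations; DMSO (2%) as 0% and EDTA (20 μM) as 100% inhibition.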
In the case of `Cc1cc(C(F)(F)F)nn1-c1nc(Nc2cccc(Cl)c2)ncc1-c1cncc(C(=O)O)c1` [Example 744, 5-{2-[(3-chlorophenyl)amino]-4-[5-methyl-3-(trifluoromethyl)-1H-pyrazol-1-yl]pyrimidin-5-yl}pyridine-3-carboxylic acid], the inhibition at 13 µM is reported as 100%. Work on `COc1ncc(-c2cnc(Nc3cc(C)cc(F)c3)nc2-n2ccc(C(F)(F)F)n2)cc1C(=O)O` [Example 754, 5-{2-[(3-fluoro-5-methylphenyl)-amino]-4-[3-(trifluoromethyl)-1H-pyrazol-1-yl]pyrimidin-5-yl}-2-methoxypyridine-3-carboxylic acid] yielded an inhibition at 13 µM of 100%. For `COc1ncc(-c2cnc(Nc3cc(C)cc(F)c3)nc2-n2nc(C(F)(F)F)cc2C)cc1C(=O)O` [Example 755, 5-{2-[(3-fluoro-5-methylphenyl)amino]-4-[5-methyl-3-(trifluoromethyl)-1H-pyrazol-1-yl]pyrimidin-5-yl}-2-methoxypyridine-3-carboxylic acid], the inhibition at 13 µM was 100%. For `COc1ncc(-c2cnc(Nc3cc(C)ccc3F)nc2-n2ccc(C(F)(F)F)n2)cc1C(=O)O` [Example 756, 5-{2-[(2-fluoro-5-methylphenyl)amino]-4-[3-(trifluoromethyl)-1H-pyrazol-1-yl]pyrimidin-5-yl}-2-methoxypyridine-3-carboxylic acid], the inhibition at 13 µM was 56%. With `COc1ncc(-c2cnc(Nc3cc(C)ccc3F)nc2-n2nc(C(F)(F)F)cc2C)cc1C(=O)O` [Example 757, 5-{2-[(2-fluoro-5-methylphenyl)amino]-4-[5-methyl-3-(trifluoromethyl)-1H-pyrazol-01-yl]pyrimidin-5-yl}-2-methoxypyridine-3-carboxylic acid] the inhibition at 13 µM was 19%. `COc1cc(Cl)cc(Nc2ncc(-c3cnc(OC)c(C(=O)O)c3)c(-n3ccc(C(F)(F)F)n3)n2)c1` [Example 758, 5-{2-[(3-chloro-5-methoxyphenyl)amino]-4-[3-(trifluoromethyl)-1H-pyrazol-1-yl]pyrimidin-5-yl}-2-methoxypyridine-3-carboxylic acid] showed an inhibition at 13 µM of 98%. Work on `COc1cc(Cl)cc(Nc2ncc(-c3cnc(OC)c(C(=O)O)c3)c(-n3nc(C(F)(F)F)cc3C)n2)c1` [Example 759, 5-{2-[(3-chloro-5-methoxyphenyl)amino]-4-[5-methyl-3-(trifluoromethyl)-1H-pyrazol-1-yl]pyrimidin-5-yl}-2-methoxypyridine-3-carboxylic acid] yielded an inhibition at 13 µM of 100%. `COc1cc(C)cc(Nc2ncc(-c3cnc(OC)c(C(=O)O)c3)c(-n3ccc(C(F)(F)F)n3)n2)c1` [Example 760] gave an inhibition at 13 µM of 100%. Molecule `COc1cc(C)cc(Nc2ncc(-c3cnc(OC)c(C(=O)O)c3)c(-n3nc(C(F)(F)F)cc3C)n2)c1` [Example 761, 2-methoxy-5-{2-[(3-methoxy-5-methylphenyl)amino]-4-[5-methyl-3-(trifluoromethyl)-1H-pyrazol-1-yl]pyrimidin-5-yl}pyridine-3-carboxylic acid] has an inhibition at 13 µM of 100%. In the case of `Cc1cc(F)cc(Nc2ncc(-c3cncc(C(=O)O)c3)c(-n3ccc(C(F)(F)F)n3)n2)c1` [Example 770, 5-{2-[(3-fluoro-5-methylphenyl)-amino]-4-[3-(trifluoromethyl)-1H-pyrazol-1-yl]pyrimidin-5-yl}pyridine-3-carboxylic acid], the inhibition at 13 µM is reported as 100%. `Cc1cc(F)cc(Nc2ncc(-c3cncc(C(=O)O)c3)c(-n3nc(C(F)(F)F)cc3C)n2)c1` [Example 771, 5-{2-[(3-fluoro-5-methylphenyl)-amino]-4-[5-methyl-3-(trifluoromethyl)-1H-pyrazol-1-yl]pyrimidin-5-yl}pyridine-3-carboxylic acid] showed an inhibition at 13 µM of 100%. With `Cc1ccc(F)c(Nc2ncc(-c3cncc(C(=O)O)c3)c(-n3ccc(C(F)(F)F)n3)n2)c1` [Example 772, 5-{2-[(2-fluoro-5-methylphenyl)-amino]-4-[3-(trifluoromethyl)-1H-pyrazol-1-yl]pyrimidin-5-yl}pyridine-3-carboxylic acid] the inhibition at 13 µM was 81%. Work on `Cc1ccc(F)c(Nc2ncc(-c3cncc(C(=O)O)c3)c(-n3nc(C(F)(F)F)cc3C)n2)c1` [Example 773, 5-{2-[(2-fluoro-5-methylphenyl)-amino]-4-[5-methyl-3-(trifluoromethyl)-1H-pyrazol-1-yl]pyrimidin-5-yl}pyridine-3-carboxylic acid] yielded an inhibition at 13 µM of 55%. Work on `COc1cc(Cl)cc(Nc2ncc(-c3cncc(C(=O)O)c3)c(-n3ccc(C(F)(F)F)n3)n2)c1` [Example 774, 5-{2-[(3-chloro-5-methoxyphenyl)-amino]-4-[3-(trifluoromethyl)-1H-pyrazol-1-yl]pyrimidin-5-yl}pyridine-3-carboxylic acid] yielded an inhibition at 13 µM of 100%. `COc1cc(Cl)cc(Nc2ncc(-c3cncc(C(=O)O)c3)c(-n3nc(C(F)(F)F)cc3C)n2)c1` [Example 775, 5-{2-[(3-chloro-5-methoxyphenyl)-amino]-4-[5-methyl-3-(trifluoromethyl)-1H-pyrazol-1-yl]pyrimidin-5-yl}pyridine-3-carboxylic acid] gave an inhibition at 13 µM of 100%. In the case of `COc1cc(C)cc(Nc2ncc(-c3cncc(C(=O)O)c3)c(-n3ccc(C(F)(F)F)n3)n2)c1` [Example 776, 5-{2-[(3-methoxy-5-methylphenyl)amino]-4-[3-(trifluoromethyl)-1H-pyrazol-1-yl]pyrimidin-5-yl}pyridine-3-carboxylic acid], the inhibition at 13 µM is reported as 100%. `COc1cc(C)cc(Nc2ncc(-c3cncc(C(=O)O)c3)c(-n3nc(C(F)(F)F)cc3C)n2)c1` [Example 777, 5-{2-[(3-methoxy-5-methylphenyl)amino]-4-[5-methyl-3-(trifluoromethyl)-1H-pyrazol-1-yl]pyrimidin-5-yl}pyridine-3-carboxylic acid] gave an inhibition at 13 µM of 100%. Work on `COc1ncc(-c2cnc(Nc3cc(C)cc(C#N)c3)nc2-n2ccc(C(F)(F)F)n2)cc1C(=O)O` [Example 780, 5-{2-[(3-cyano-5-methylphenyl)amino]-4-[3-(trifluoromethyl)-1H-pyrazol-1-yl]pyrimidin-5-yl}-2-methoxypyridine-3-carboxylic acid] yielded an inhibition at 13 µM of 100%. For `COc1ncc(-c2cnc(Nc3cc(C)cc(C#N)c3)nc2-n2nc(C(F)(F)F)cc2C)cc1C(=O)O` [Example 781, 5-{2-[(3-cyano-5-methylphenyl)amino]-4-[5-methyl-3-(trifluoromethyl)-1H-pyrazol-1-yl]pyrimidin-5-yl}-2-methoxypyridine-3-carboxylic acid], the inhibition at 13 µM was 99%. Work on `Cc1cc(C#N)cc(Nc2ncc(-c3cncc(C(=O)O)c3)c(-n3ccc(C(F)(F)F)n3)n2)c1` [Example 784, 5-{2-[(3-cyano-5-methylphenyl)amino]-4-[3-(trifluoromethyl)-1H-pyrazol-1-yl]pyrimidin-5-yl}pyridine-3-carboxylic acid] yielded an inhibition at 13 µM of 70%. For `Cc1cc(C#N)cc(Nc2ncc(-c3cncc(C(=O)O)c3)c(-n3nc(C(F)(F)F)cc3C)n2)c1` [Example 785, 5-{2-[(3-cyano-5-methylphenyl)amino]-4-[5-methyl-3-(trifluoromethyl)-1H-pyrazol-1-yl]pyrimidin-5-yl}pyridine-3-carboxylic acid], the inhibition at 13 µM was 100%. `Cc1cc(C(F)(F)F)nn1-c1nc(Nc2ccc(F)c(Cl)c2)ncc1-c1cnc(OC2CCN(C)C2)c(C(=O)O)c1` (stereo not shown) [Example 787, 5-{2-[(3-chloro-4-fluorophenyl)amino]-4-[5-methyl-3-(trifluoromethyl)-1H-pyrazol-1-yl]pyrimidin-5-yl}-2-[(1-methylpyrrolidin-3-yl)oxy]pyridine-3-carboxylic acid] was tested, and the inhibition at 13 µM was 97%.
